Results reported in patent US9457044B2, “Methods and compositions for wound healing” (CoDa Therapeutics, Inc., priority 2006, dated 2016).

What was measured:
Format in all cases: in vivo, mice
TNF-α mRNA = assay: Real-Time PCR of TNF-α at wound sites; details: day 7; P<0.05 versus control sODN
Description: Male, 8 week old, ICR mice were used in the following experiments. All the mice were kept under specific pathogen-free conditions in an environmentally controlled clean room at University College London and all the experiments were carried out under UK Home Office regulations. Mice were anaesthetized by halothane inhalation. Four full-thickness excisional wounds of 6 mm diameter were made on the shaved back on either side of the dorsal midline with a 6 mm biopsy punch (Kai Industries). To each pair of wounds a single topical application of 50 μl of 1 μM Cx43 as ODN (SEQ. ID No. 2) (Sigma-Genosys) in 30% Pluronic F-127 gel (Sigma-Aldrich), chilled on ice, was made to one wound, and an identical application of 1 μM sense control sODNs was made to the other. […] R. and Becker, D. L. (2003). Targeting connexin 43 expression accelerates the rate of wound repair. Curr Biol 13, 1697-703). Each wound region was digitally photographed at the indicated time intervals, and the areas of the wounds were calculated. All wound areas were expressed as percentages of the initial wound areas. […]
Gene specific primers and probe were obtained as TaqMan® Gene Expression Assays (Applied Biosystems) for Cx43, Ccl2, Co1α1, TNFα and TGFβ1. […] Each sample was analyzed in duplicate. […]

BrdU-positive cells = assay: BrdU labeling of proliferating cells at wound sites
Description: (§1) Male, 8 week old, ICR mice were used in the following experiments. All the mice were kept under specific pathogen-free conditions in an environmentally controlled clean room at University College London and all the experiments were carried out under UK Home Office regulations. Mice were anaesthetized by halothane inhalation. Four full-thickness excisional wounds of 6 mm diameter were made on the shaved back on either side of the dorsal midline with a 6 mm biopsy punch (Kai Industries). To each pair of wounds a single topical application of 50 μl of 1 μM Cx43 as ODN (SEQ. ID No. 2) (Sigma-Genosys) in 30% Pluronic F-127 gel (Sigma-Aldrich), chilled on ice, was made to one wound, and an identical application of 1 μM sense control sODNs was made to the other. […] R. and Becker, D. L. (2003). Targeting connexin 43 expression accelerates the rate of wound repair. Curr Biol 13, 1697-703). Each wound region was digitally photographed at the indicated time intervals, and the areas of the wounds were calculated. All wound areas were expressed as percentages of the initial wound areas. In some series of experiments, wounds and their surrounding area, including the scab and epithelial margins, were harvested with an 8 mm biopsy punch (Kai Industries) at the indicated time intervals after mice were killed with an overdose of chloroform. A minimum of eight mice were used for each time point examined.
In another experiment, wounded mice were injected intraperitoneally with 1 ml of BrdU (Sigma) in PBS solution (1 mg/ml) 2 hours before harvesting on days 1, 2, and 7. Wound tissues were fixed in 4% formaldehyde buffered with PBS, and embedded in paraffin. Deparaffinized sections (6 μm thick) were treated with a HistoMouse™-Plus Kit (ZYMED Laboratories, Inc) to reduce background signals according to manufacturer's instructions. […]
A treatment-blinded observer counted MPO-positive neutrophils and F4/80-positive macrophages in the wound bed (defined as the area surrounded by unwounded skin, fascia, regenerated epidermis, and eschar) in 3 random high-power fields of 0.332 mm^2. BrdU-positive cells in the wound margin and the nascent epidermis regions of each immunohistochemically stained section were counted as described previously and expressed per […] of epidermis (Mori, R., Kondo, T., Nishie, T., Ohshima, T. and Asano, M. (2004). Impairment of skin wound healing in beta-1,4-galactosyltransferase-deficient mice with reduced leukocyte recruitment. Am J Pathol 164, 1303-14). Number of fibroblast like cells (phalloidin-positive cells with spindle-shape body) at the wound margin were counted in high-power fields also (each field was 0.332 mm^2). […] Images were made binary at a standard threshold and positive pixels were counted using Image J (NIH Image).

granulation tissue = assay: Granulation tissue area (H&E)
Description: as §1, with “examined. […]” for “examined.”

blood vessels = assay: Angiogenesis at wound sites (von Willebrand factor, CD31, isolectinB staining)
Description: as §1
Wound tissues were fixed in 4% formaldehyde buffered with PBS, and embedded in paraffin. Sections ([…] thick) were subjected to hematoxylin and eosin staining or immunostaining. Measurement of granulation tissue area in H&E was performed using Improvision Openlab™ 4.0.2 software (Improvision). For immunohistochemistry, deparaffinized sections were treated with endogenous peroxidase blocking reagent (Dako Cytomation A/S) and proteinase K (Dako Cytomation A/S) for 20 minutes and 6 minutes at room temperature, respectively. They were then incubated with rabbit antimyeloperoxidase (MPO) polyclonal antibody (NeoMarkers) diluted 1:200, rat anti-mouse F4/80 monoclonal antibody (mAb) (Abcom Limited) diluted 1:400 or rat antimouse CD31 (platelet endothelial cell adhesion molecule 1, PECAM-1) mAb (PharMingen) or rabbit anti-mouse TGF-β1 polyclonal antibody (Santa Cruz Biotechnology, Inc) both diluted 1:200 overnight at 4° C. after blocking with 15% skimmed milk for 1 hour at room temperature. In addition, some sections were reacted with phalloidin-tetramethylrhodamine B isothiocyanate (Sigma-Aldrich) diluted 1:500 for 1 hour at room temperature. The antibodies were appropriately diluted in Antibody Diluent with Background Reducing Components (Dako Cytomation A/S). The sections reacted with anti-MPO antibody and anti TGF-β1 antibody were stained with EnVision+™ (Dako Cytomation A/S) to enhance the signal, according to the manufacturer's instructions. The sections that had been reacted with anti-F4/80 and anti-CD31 antibodies were incubated with biotinylated rabbit anti-rat immunoglobulin (Dako Cytomation A/S) diluted 1:200 for 1 hour at 37° C. The signal was then enhanced using the Catalyzed Signal Amplification System® (Dako Cytomation A/S) according to the manufacturer's instructions. Thereafter, counterstaining was performed with methyl green (Dako Cytomation A/S) followed by MPO, TGF-β1, F4/80, and CD31 staining or 4′,6-diamidino-2-phenylindole (DAPI) followed by phalloidin staining. […]

GTAATTGCGGCAGGAGGAATTGTTTCTGTC (antisense GTAATTGCGGCAGGAGGAATTGTTTCTGTC; in Pluronic F-127 gel, further chemistry not given here) [Cx43 asODN]
expression level of TNF-α mRNA (TNF-α mRNA): significantly reduced | keratinocyte proliferation in the epidermal wound margin, control versus treated (BrdU-positive cells; FIG. 2E): little difference | BrdU-positive cells in the dermal wound margin (BrdU-positive cells; FIG. 2G): slightly more cells | BrdU-positive cells in the nascent epidermis (BrdU-positive cells; after both 2 days and 7 days): significantly increased numbers | BrdU-positive cells in the granulation tissue (BrdU-positive cells; days 1 and 2): significantly more | granulation tissue area versus untreated tissue (granulation tissue; day 5, difference not significant): slightly smaller | granulation tissue area versus control sODN treated wounds (granulation tissue; days 7, 10 and 14 after wounding): significantly (*P<0.05; **P<0.01) smaller | blood vessel staining in granulation tissue (blood vessels; 5 days, none in control wounds): staining was seen in the edges of the granulation tissue of all | quantified blood vessel staining, treated versus controls (blood vessels; 7 days P=0.0019, 10 days P=0.015): significantly more staining in controls | size of blood vessels and extent of staining, treated versus control (blood vessels; 14 days): very similar | wounds with fine blood vessels throughout the entire granulation tissue (blood vessels; day 7): five out of six | enhancement of the rate of wound maturation (blood vessels; mouse, in vivo): 2 to 3 days
